According to paper PMC6289942, “Development of a NS2B/NS3 protease inhibition assay using AlphaScreen® beads for screening of anti-dengue activities” (Heliyon, 2018):
Where two headings read alike, the source gives them in different places. Where a SMILES comes first, the peptide text is derived from it. [ ]: non-standard residue; d: D form. The star is where a group is joined. Sta = CC(C)C[C@H](N)[C@@H](O)CC(=O)O; Isovaleryl = CC(C)CC(=O)*

Columns and labels:
[1] = Solubility of compounds for screening (DMSO stock); assay type: physicochemical; settings: needed 10% v/v DMSO in the assay
NS2B/NS3 protease [2] = molecular target: T1, NS2B/NS3 protease (Dengue virus type 2, UniProt P14340); assay: Protease assay using fluorogenic peptide substrate (BOC-Gly-Arg-Arg-AMC); assay type: biochemical
T1 construct: active site of the serine protease domain of the NS2B/NS3 protease; made in house; host or cells: Escherichia coli XL 1-Blue MRF
T1 sequence (P14340 1476-1653): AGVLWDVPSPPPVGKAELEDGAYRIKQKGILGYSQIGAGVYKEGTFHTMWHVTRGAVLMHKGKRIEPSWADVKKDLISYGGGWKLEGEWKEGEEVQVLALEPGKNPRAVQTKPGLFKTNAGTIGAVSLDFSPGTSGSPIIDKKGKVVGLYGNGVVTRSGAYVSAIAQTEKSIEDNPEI
T1 sequence (P14340 1346-1475): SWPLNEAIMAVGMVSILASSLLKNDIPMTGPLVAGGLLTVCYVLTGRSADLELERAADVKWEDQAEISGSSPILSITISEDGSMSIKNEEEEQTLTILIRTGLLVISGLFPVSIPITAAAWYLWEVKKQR
Protocol: Dengue NS2B/NS3 protease enzyme was expressed and purified as previously described. Briefly, NS2B/NS3 expression plasmid was propagated in Escherichia coli strain XL 1-Blue MRF (Agilent Technologies, Santa Clara, CA).The enzyme was isolated and purified using Ni^2+-NTA (nickel-nitrilotriacetic acid) resin-based column. The specific proteolytic activity of NS2B/NS3 protease was determined using similar formula as published for other proteases. Protease assay using fluorogenic peptide susbtrate (BOC-Gly-Arg-Arg-AMC) was also used to determine the NS2B/NS3 inhibition activities of the controls and derivatives. […] Cleavage of the substrate by NS2B/NS3 protease and detection of the fluorescence signal were determined using Envision 2104 Multilabel Plate Reader (Perkin Elmer, Boston, MA, USA) at excitation and emission wavelength of 385 nm and 465 nm, respectively. […]
IC50 values were derived based on non-linear regression analysis computed using GraphPad Prism 5.0 (GraphPad Software, La Jolla, CA, USA). […] The zʹ factor was calculated as described by Zhang and co-workers. zʹ factor = 1–3×(σH+σL)/|μH−μL|, where σH and σL represent the standard deviations of the AlphaScreen® signal of the substrate in the absence (high signal, H) and presence (low signal, L) of the protease, and μH and μL represent the mean values of high signal and low signal, respectively. […]

NS2B/NS3 protease [3] = molecular target: T1, NS2B/NS3 protease; assay: NS2B/NS3 protease inhibition assay using AlphaScreen beads; assay type: biochemical
Protocol: The peptide substrate used in this assay has a known NS2B/NS3 cleavage site between lysine (K), and serine (S) (GRK ↓ SLT), and is a part of a sequence of dengue polyprotein precursor (NS3/NS4A) as reported by Khumtong and co-workers. The peptide substrate was tagged with a specific sequence ([…]) at N-terminal and polyhistidine at C-terminal. This specific sequence has a binding affinity towards StrepTactin®, an engineered streptavidin [37]. Glycine linkers were added on both sides of untagged peptide substrate (Fig. 1a and b). To determine the extent of N-terminal labelling on the peptide substrate, competitive displacement assay using AlphaScreen® TruHits Detection Kit (Perkin Elmer, USA) consisting of StrepTactin® donor beads and biotinylated acceptor beads was carried out. On the other hand, to ensure that the peptide substrate is adequately tagged with polyhistidine on the C-terminal, competitive binding assay using Histidine (Nickel Chelate) Detection Kit (Perkin Elmer, USA) was carried out. This kit comprises of both StrepTactin® donor beads and nickel chelate acceptor beads.
In general, AlphaScreen® experiments were carried out in white 384-well plates (Perkin Elmer, Boston, MA, USA) in a total reaction volume of 25 μL under subdued light. […] The 384-well plate was read using Envision 2104 Multilabel Plate Reader (Perkin Elmer, Boston, MA, USA) according to AlphaScreen® settings (excitation and emission wavelength at 680nm and 520-620nm, respectively). […] After incubating for 1 h, 5 μL of donor beads and acceptor beads were added, followed by 1 h incubation at room temperature prior to reading of signal. […] The optimum conditions were determined based on the maximum signal obtained from well containing peptide alone and minimum signal produced by well containing peptide substrate, enzyme and beads, indicating maximum cleavage of the NS2B/NS3 enzyme on the substrate and lowest background signal. […] Since the amount obtained for diversity 0713 was in minute quantity and was insufficient for subsequent testing, diversity 0713 was not used as control in this study. […]

dengue NS2B/NS3 protease = test system: dengue NS2B/NS3 protease; set-up: method as in PMID 11581268; settings: cited from earlier work
DENV2 protease = test system: DENV2 protease; set-up: method as in PMID 16621533; settings: cited from earlier work; for inhibition of protease activity: 80 ppm (200 μM) ref 21; for Ki: protease assay ref 21

c1ccc(CSc2nc(N(Cc3ccccc3)Cc3ccccc3)nc3c2ncn3Cc2ccccc2)cc1 [Compound 11, N, N, 9-tribenzyl-6-(benzylsulfanyl)-9H-purin-2-amine]
solubility (in words) [1]: low solubility

Aprotinin
IC50 (NS2B/NS3 protease [2]; protease assay, fluorogenic substrate, 1 h at 37 °C, read-out: IC50): 0.15 µM | IC50 (NS2B/NS3 protease [3]; AlphaScreen assay, read-out: IC50): 0.35 µM | IC50 (dengue NS2B/NS3 protease; published value, different assay system ref 59): 0.065 µM

Cl.N=C(N)c1ccc(CS(=O)(=O)F)cc1 [4-Amidinophenylmethanesulfonyl fluoride.hydrochloride]
enzyme inhibition (in words) (dengue NS2B/NS3 protease): no enzyme inhibition

N=C(N)c1ccccc1 [benzamidine]
enzyme inhibition (in words) (dengue NS2B/NS3 protease): no enzyme inhibition

CC(C)=CC[C@@H]1C(C)=CC[C@@H](c2ccccc2)[C@@H]1C(=O)c1c(O)cc(O)cc1O [4-hydroxypanduratin A]
inhibition of protease activity (DENV2 protease): 65–80% | Ki (DENV2 protease): 21 µM

Cc1ccc(S(=O)(=O)N[C@@H](CCCCN)C(=O)CCl)cc1.Cl [N-Tosyl-L-lysine chloromethyl ketone.hydrochloride]
enzyme inhibition (in words) (dengue NS2B/NS3 protease): no enzyme inhibition

Cc1ccc(S(=O)(=O)N[C@@H](Cc2ccccc2)C(=O)CCl)cc1 [N-Tosyl-L-phenylalanine chloromethyl ketone]
inhibition of enzyme (dengue NS2B/NS3 protease; 1 mM ref 59): 20–30%

Nc1nc(SCc2ccccc2)c2ncn(Cc3ccccc3)c2n1 [Compound 9, 9-benzyl-6-(benzylsulfanyl)-9H-purin-2-amine]
solubility (in words) [1]: low solubility

Nc1nc(SCc2ccccc2)c2[nH]cnc2n1 [Compound 8, 6-(benzylsulfanyl)-9H-purin-2-amine]
solubility (in words) [1]: low solubility

COc1cc(O)c(C(=O)[C@@H]2[C@H](CC=C(C)C)C(C)=CC[C@H]2c2ccccc2)c(O)c1 [Panduratin A]
IC50 (NS2B/NS3 protease [2]): 211 µM | IC50 (NS2B/NS3 protease [3]): > 100 µM | inhibition at 100 µM (NS2B/NS3 protease [3]; 100 μM, AlphaScreen assay, read-out: maximum inhibition at the highest concentration tested): > 50% | inhibition of protease activity (DENV2 protease): 65–80% | Ki (DENV2 protease): 25 µM

CC(C)CC(=O)N[C@H](C(=O)N[C@H](C(=O)N[C@@H](CC(C)C)[C@@H](O)CC(=O)N[C@@H](C)C(=O)N[C@@H](CC(C)C)[C@@H](O)CC(=O)O)C(C)C)C(C)C [pepstatin A] (Isovaleryl-VV[Sta]A[Sta]-OH)
enzyme inhibition (in words) (dengue NS2B/NS3 protease): no enzyme inhibition

CC(=O)N[C@@H](CC(C)C)C(=O)N[C@@H](CC(C)C)C(=O)N[C@H](C=O)CCCNC(=N)N [leupeptin]
enzyme inhibition (in words) (dengue NS2B/NS3 protease): no enzyme inhibition

O=S(=O)(F)Cc1ccccc1 [phenylmethylsulfonyl fluoride]
enzyme inhibition (in words) (dengue NS2B/NS3 protease): no enzyme inhibition

Fc1ccc(C=Nc2nc(S)c3nc[nH]c3n2)cc1 [Compound 12, 2-(4-fluorobenzylideneamino)-9H-purine-6-thiol]
solubility (in words) [1]: low solubility

Cl.NCCc1ccc(S(=O)(=O)F)cc1 [4-(2-aminoethyl) benzenesulfonyl fluoride.hydrochloride]
inhibition of enzyme (dengue NS2B/NS3 protease; 500 μM ref 59): 20–30%

c1ccc(CNc2nc(SCc3ccccc3)c3ncn(Cc4ccccc4)c3n2)cc1 [Compound 10, N, 9-dibenzyl-6-(benzylsulfanyl)-9H-purin-2-amine]
solubility (in words) [1]: low solubility

B1: soybean trypsin inhibitor: serine protease inhibitor (protein, UniProt P01070 25-205, looked up)
Trypsin inhibitor A: DFVLDNEGNPLENGGTYYILSDITAFGGIRAAPTGNERCPLTVVQSRNELDKGIGTIISSPYRIRFIAEGHPLSLKFDSFAVIMLCVGIPTEWSVVEDLPEGPAVKIGENKDAMDGWFRLERVSDDEFNNYKLVFCPQQAEDDKCGDIGISIDHDDGTRRLVVSKNKPLVVQFQKLDKESL
enzyme inhibition (in words) (dengue NS2B/NS3 protease): no enzyme inhibition
